Measured values from patent US6683103B2, “Sulfonamides for treatment of endothelin-mediated disorders” (Texas Biotechnology Corporation, priority 1997, dated 2004).

What was measured:
Papp (Table 4) = type: in vitro ADME
[1] = Oral half-life and peak plasma levels in rat; type: in vivo
Text: As used herein, bioavailability refers to the rate and extent of absorption. Methods for determining bioavailability are well known to those of skill in the art. For example, bioavailability of any of the compounds described herein can be determined empirically by administration of the compound to an animal, followed by taking blood samples over time and measuring the blood concentration of the compound. In vivo half life (t½) is defined as the time it takes for the concentration of the compound in the blood to be reduced by one-half. Estimations of the area under the curve for intravenous administration can be used to estimate the area under the curve for oral administration, yielding bioavailability data. See, e.q., Milo Gibal (1991) Biopharmaceutics and Pharmacology, 4th edition (Lea and Sediger).
Table 4 lists oral half-life, bioavailability, and in vivo activity of selected exemplary compounds. The in vivo activity was measured in a pulmonary hypertension model and is a measure of the activity of the compounds at selected dosages.

[2] = system: Pulmonary Hypertension model; experiment: Pulmonary hypertension model, in vivo efficacy; parameters: species or system rat; key to in vivo Efficacy: ++ effective at 5 mg/kg; − no effect at 5 mg/kg; + effective at 15 mg/kg; settings: Pulmonary Hypertension model
Procedure: As used herein, efficacy refers to the maximal effect that can be produced by a compound. Efficacy can be determined by methods known to those of skill in the art. For example, it can be determined by the properties of the compound and its receptor-effector system and is reflected in the plateau of the concentration-effect curve. In vivo efficacy refers to efficacy which is determined in an animal model. For example, in vivo efficacy of the compounds described herein can be determined by amelioration of hypoxia-induced pulmonary hypertension in rat. In this context, in vivo efficacy refers to the ability of a compound to restore an elevated pulmonary artery pressure to a normal value. […] J. Physiol. […] The in vivo activity was measured in a pulmonary hypertension model and is a measure of the activity of the compounds at selected dosages.

[3] = Stability of solutions, percent remaining by HPLC; type: physicochemical; settings: 150 mg/mL; LABRASOL; 24 h
[4] = system: ET-1-induced pressor response; experiment: ET-1-induced pressor responses in conscious, autonomically blocked rats; type: in vivo, rat; settings: in 30 min at dosages as low as 30 mg/kg
Procedure: Animals were placed in a restrainer and allowed to regain consciousness. Thirty minutes later autonomic blockade was administered (atropine methyl nitrate, 3 mg/kg, IV, followed by propranalol, 2 mg/kg, IV). An hour later animals received a bolus injection of vehicle (0.5 ml) followed thirty minutes later by intravenous bolus administration of ET-1 (Control, 1 μg/kg). Following recovery from this challenge, test-compounds were administered by intravenous bolus administration (0.5 ml) and then re-challenged with ET-1 thirty minutes later. Results are expressed as the percent inhibition of the ET-1-induced pressor response after administration of the test compound compared to the pressor response induced by the control ET-1 challenge. In some cases a third ET-1 challenge was administered ninety minutes after administration of the test compound.

[5] = system: DOCA-salt hypertensive rat; experiment: Deoxycorticosterone acetate (DOCA)-salt hypertensive rat model; type: in vivo
Procedure: E. Deoxycorticosterone Acetate (DOCA)-Salt Hypertensive Rat Model for Assessing in vivo Activity of Selected Compounds
Selected compounds disclosed herein have been tested for activity in the deoxycorticosterone acetate (DOCA)-salt hypertensive rat model. To perform these tests, silastic MDX4-4210 elastomer implants containing 47 mg (DOCA) were prepared according to the method of Ornmsbee et al. ((1973) the J. Pharm. Sci. 62:255-257). Briefly, DOCA is incorporated into silicon rubber implants for sustained release. To prepare the implants the DOCA is incorporated into unpolymerized silicone rubber, catalyst is added and the mixture is cast in a hemicylindrical shape.
Sprague Dawley rats (7-8 weeks old) were unilaterally nephrectomized under ketamine anesthesia and a DOCA-implant was placed on the left lateral dorsal abdomen of the animal. The rats were allowed to recover for three weeks. During recovery they were permitted free access to normal rat chow and 0.9% NaCl drinking solution in place of drinking water. The rats develop hypertension within 3 weeks.
All animals were used in the tests between 21 and 30 days post surgery. The mean arterial blood pressure in these animals ranged from 165-200 mm Hg.
On the day of experimentation, catheters were inserted under brevital anesthesia into the right femoral artery for measurement of blood pressure, and into the right femoral vein for administration of a selected compound. The animals were placed in a restrainer and allowed to recover for a minimum of 60 min or until a steady mean arterial blood pressure was recorded. At that time, the selected compound or control vehicle was administered either intravenously, as a 60 minute infusion, or orally by oral gavage. Blood pressure was recorded continuously for a further 10 hrs.

Papp (Papp (Table 4)) [×10⁻⁶ cm/s] | Peak Plasma Levels ([1]; in vivo) [µg/mL] | POt½ in Rat ([1]; oral) [h] | percent remaining (HPLC) [3] [%] | SMILES | in vivo Efficacy [2] | reduction of pressure [4] | effect on blood pressure [5]
2.32 | 173 | 4.1 | 90.1 | Cc1cc2c(cc1CC(=O)c1sccc1S(=O)(=O)Nc1onc(C)c1Cl)OCO2 [N-(4-chloro-3-methyl-5-isoxazolyl)-2-[2-methyl-4,5-(methylenedioxy)phenylacetyl]thiophene-3-sulfonamide] | ++ | about 30% | 
 |  |  |  | Cc1noc(NS(=O)(=O)c2ccsc2C(=O)Cc2ccc3c(c2)OCO3)c1Cl [N-(4-chloro-3-methyl-5-isoxazolyl)-2-[(3,4-(methylenedioxy)phenylacetyl]thiophene-3-sulfonamide] |  | about 30% | effective in decreasing blood pressure
